≈ marks a conversion by molar mass, not a printed value.

The first test has as its system Micrococcus luteus. In words: Antibacterial activity against Micrococcus luteus ATCC 4698 by micro broth dilution method. The test is classed as functional. Particulars: NCTC 2665. On the technique in general: Dilution methods test growth across graded concentrations, often in twofold steps.
By MIC is commonly meant the least concentration at which growth counts as inhibited. A higher MIC goes with a less susceptible organism. In turn, `CCn1cc(C(=O)O)c(=O)c2cc(F)c(N3CCN(Cc4nc5ccc(Cl)cc5[nH]4)CC3)cc21` returned an MIC of 1 µg/mL (≈ 2.07 µM).
Molecule `CCCCCn1c(CN2CCN(c3cc4c(cc3F)c(=O)c(C(=O)O)cn4C3CC3)CC2)nc2ccccc21` returned an MIC of 4 µg/mL (≈ 7.52 µM).
Same read-out and setting: next, `O=C(O)c1cn(C2CC2)c2cc(N3CCN(Cc4nc5ccc(Cl)cc5[nH]4)CC3)c(F)cc2c1=O`: 0.25 µg/mL (≈ 0.504 µM).

Another test deals with Bacillus spizizenii. The experiment in a line: Antibacterial activity against Bacillus subtilis ATCC 6633 by micro broth dilution method.
Details: not given
The class given is functional.
`CCn1cc(C(=O)O)c(=O)c2cc(F)c(N3CCN(Cc4nc5ccc(Cl)cc5[nH]4)CC3)cc21` returned an MIC of 16 µg/mL (≈ 33.1 µM).
Still for that read-out and setting: to `CCCCCn1c(CN2CCN(c3cc4c(cc3F)c(=O)c(C(=O)O)cn4C3CC3)CC2)nc2ccccc21` belongs 4 µg/mL (≈ 7.52 µM).
Still for that read-out and setting: next, `O=C(O)c1cn(C2CC2)c2cc(N3CCN(Cc4nc5ccc(Cl)cc5[nH]4)CC3)c(F)cc2c1=O`: 0.5 µg/mL (≈ 1.01 µM).

Another test relates to Saccharomyces cerevisiae. In words: Antifungal activity against Saccharomyces cerevisiae ATCC 9763 after 24 hrs by micro broth dilution method. The settings on record: ATCC 9763, 24 h. The test is classed as functional.
Usually MIC80 stands for the lowest concentration that inhibits either 80% of growth or 80% of the strains tested, depending on the study. Read a low MIC80 as greater potency. `CCn1cc(C(=O)O)c(=O)c2cc(F)c(N3CCN(Cc4nc5ccc(Cl)cc5[nH]4)CC3)cc21` gave an MIC80 of 8 µg/mL (≈ 16.5 µM).
Same read-out and setting: to `CCCCCn1c(CN2CCN(c3cc4c(cc3F)c(=O)c(C(=O)O)cn4C3CC3)CC2)nc2ccccc21` belongs 256 µg/mL (≈ 482 µM); to `O=C(O)c1cn(C2CC2)c2cc(N3CCN(Cc4nc5ccc(Cl)cc5[nH]4)CC3)c(F)cc2c1=O`, 0.25 µg/mL (≈ 0.504 µM).

System in another test: not listed separately
The experiment in a line: Antibacterial activity against Bacillus proteus ATCC 13315 by micro broth dilution method.
Details: not given
The test is classed as functional.
Consider `CCn1cc(C(=O)O)c(=O)c2cc(F)c(N3CCN(Cc4nc5ccc(Cl)cc5[nH]4)CC3)cc21`, for which the MIC is 0.5 µg/mL (≈ 1.03 µM).
Still for that read-out and setting: to `CCCCCn1c(CN2CCN(c3cc4c(cc3F)c(=O)c(C(=O)O)cn4C3CC3)CC2)nc2ccccc21` belongs 2 µg/mL (≈ 3.76 µM).
The same measure, in the same setting: to `O=C(O)c1cn(C2CC2)c2cc(N3CCN(Cc4nc5ccc(Cl)cc5[nH]4)CC3)c(F)cc2c1=O` belongs 0.5 µg/mL (≈ 1.01 µM).

The test system of another test is Salmonella enterica. In words: Antibacterial activity against Salmonella enterica ATCC 14028 by micro broth dilution method.
Details: not given
The test is classed as functional.
In the case of `CCn1cc(C(=O)O)c(=O)c2cc(F)c(N3CCN(Cc4nc5ccc(Cl)cc5[nH]4)CC3)cc21`, the MIC amounted to 0.5 µg/mL (≈ 1.03 µM).
On the same count and under the same terms, to `CCCCCn1c(CN2CCN(c3cc4c(cc3F)c(=O)c(C(=O)O)cn4C3CC3)CC2)nc2ccccc21` belongs 4 µg/mL (≈ 7.52 µM); to `O=C(O)c1cn(C2CC2)c2cc(N3CCN(Cc4nc5ccc(Cl)cc5[nH]4)CC3)c(F)cc2c1=O`, 0.5 µg/mL (≈ 1.01 µM).

A further test relates to Staphylococcus aureus. In words: Antibacterial activity against Staphylococcus aureus ATCC 25923 by micro broth dilution method. The class given is functional.
Details: not given
`CCn1cc(C(=O)O)c(=O)c2cc(F)c(N3CCN(Cc4nc5ccc(Cl)cc5[nH]4)CC3)cc21`: 2 µg/mL (≈ 4.13 µM) was the least that counted as inhibitory (MIC).
On the same count and under the same terms, next, `CCCCCn1c(CN2CCN(c3cc4c(cc3F)c(=O)c(C(=O)O)cn4C3CC3)CC2)nc2ccccc21`: 128 µg/mL (≈ 241 µM); `O=C(O)c1cn(C2CC2)c2cc(N3CCN(Cc4nc5ccc(Cl)cc5[nH]4)CC3)c(F)cc2c1=O`: 0.5 µg/mL (≈ 1.01 µM).

In the next test the test system is Aspergillus flavus. The experiment in a line: Antifungal activity against Aspergillus flavus ATCC 204304 after 24 hrs by micro broth dilution method. The test is classed as functional. Particulars: ATCC 204304, 24 h.
Turning to `CCn1cc(C(=O)O)c(=O)c2cc(F)c(N3CCN(Cc4nc5ccc(Cl)cc5[nH]4)CC3)cc21`, the MIC80 came out at 2 µg/mL (≈ 4.13 µM).
In the case of `CCCCCn1c(CN2CCN(c3cc4c(cc3F)c(=O)c(C(=O)O)cn4C3CC3)CC2)nc2ccccc21`, the MIC80 came out at 256 µg/mL (≈ 482 µM).
On the same count and under the same terms, next, `O=C(O)c1cn(C2CC2)c2cc(N3CCN(Cc4nc5ccc(Cl)cc5[nH]4)CC3)c(F)cc2c1=O`: 0.5 µg/mL (≈ 1.01 µM).

A further test deals with Escherichia coli. The experiment in a line: Antibacterial activity against Escherichia coli DH52 by micro broth dilution method. The class given is functional.
Details: not given
As for `CCn1cc(C(=O)O)c(=O)c2cc(F)c(N3CCN(Cc4nc5ccc(Cl)cc5[nH]4)CC3)cc21`, the MIC was found to be 0.5 µg/mL (≈ 1.03 µM).
On to `CCCCCn1c(CN2CCN(c3cc4c(cc3F)c(=O)c(C(=O)O)cn4C3CC3)CC2)nc2ccccc21`, for which the MIC is 1 µg/mL (≈ 1.88 µM). Compared with the last molecule, the MIC is about 2-fold higher.
Same read-out and setting: to `O=C(O)c1cn(C2CC2)c2cc(N3CCN(Cc4nc5ccc(Cl)cc5[nH]4)CC3)c(F)cc2c1=O` belongs 0.5 µg/mL (≈ 1.01 µM).

In the next test the test system is Pseudomonas aeruginosa. In words: Antibacterial activity against Pseudomonas aeruginosa ATCC 27853 by micro broth dilution method. The test is classed as functional.
Details: not given
Consider `CCn1cc(C(=O)O)c(=O)c2cc(F)c(N3CCN(Cc4nc5ccc(Cl)cc5[nH]4)CC3)cc21`, for which the MIC was determined as 1 µg/mL (≈ 2.07 µM).
Still for that read-out and setting: next, `CCCCCn1c(CN2CCN(c3cc4c(cc3F)c(=O)c(C(=O)O)cn4C3CC3)CC2)nc2ccccc21`: 2 µg/mL (≈ 3.76 µM); `O=C(O)c1cn(C2CC2)c2cc(N3CCN(Cc4nc5ccc(Cl)cc5[nH]4)CC3)c(F)cc2c1=O`: 0.5 µg/mL (≈ 1.01 µM).

For a further test, the system named is Escherichia coli. In words: Antibacterial activity against Escherichia coli JM109 by micro broth dilution method. The test is classed as functional.
Details: not given
In turn, `CCn1cc(C(=O)O)c(=O)c2cc(F)c(N3CCN(Cc4nc5ccc(Cl)cc5[nH]4)CC3)cc21` yielded an MIC of 2 µg/mL (≈ 4.13 µM).
The same measure, in the same setting: next, `CCCCCn1c(CN2CCN(c3cc4c(cc3F)c(=O)c(C(=O)O)cn4C3CC3)CC2)nc2ccccc21`: 128 µg/mL (≈ 241 µM); `O=C(O)c1cn(C2CC2)c2cc(N3CCN(Cc4nc5ccc(Cl)cc5[nH]4)CC3)c(F)cc2c1=O`: 0.5 µg/mL (≈ 1.01 µM).

The next test concerns Staphylococcus aureus. The experiment in a line: Antibacterial activity against methicillin-resistant Staphylococcus aureus N315 by micro broth dilution method. The test is classed as functional.
Details: not given
Consider `CCn1cc(C(=O)O)c(=O)c2cc(F)c(N3CCN(Cc4nc5ccc(Cl)cc5[nH]4)CC3)cc21`, for which 1 µg/mL (≈ 2.07 µM) was the least that counted as inhibitory (MIC).
Still for that read-out and setting: to `CCCCCn1c(CN2CCN(c3cc4c(cc3F)c(=O)c(C(=O)O)cn4C3CC3)CC2)nc2ccccc21` belongs 64 µg/mL (≈ 120 µM); to `O=C(O)c1cn(C2CC2)c2cc(N3CCN(Cc4nc5ccc(Cl)cc5[nH]4)CC3)c(F)cc2c1=O`, 0.5 µg/mL (≈ 1.01 µM).

System in the next test: not listed separately
The experiment in a line: Antifungal activity against Candida mycoderma ATCC 9888 after 24 hrs by micro broth dilution method. The class given is functional. The settings on record: Candida vini.
On to `CCn1cc(C(=O)O)c(=O)c2cc(F)c(N3CCN(Cc4nc5ccc(Cl)cc5[nH]4)CC3)cc21`, for which the MIC80 is 8 µg/mL (≈ 16.5 µM).
Same read-out and setting: to `CCCCCn1c(CN2CCN(c3cc4c(cc3F)c(=O)c(C(=O)O)cn4C3CC3)CC2)nc2ccccc21` belongs 2 µg/mL (≈ 3.76 µM).
Still for that read-out and setting: to `O=C(O)c1cn(C2CC2)c2cc(N3CCN(Cc4nc5ccc(Cl)cc5[nH]4)CC3)c(F)cc2c1=O` belongs 0.5 µg/mL (≈ 1.01 µM).

The next test relates to Candida albicans. In words: Antifungal activity against Candida albicans ATCC 10231 after 24 hrs by micro broth dilution method. The test is classed as functional. Particulars: ATCC 10231, 24 h.
Molecule `CCn1cc(C(=O)O)c(=O)c2cc(F)c(N3CCN(Cc4nc5ccc(Cl)cc5[nH]4)CC3)cc21` returned an MIC80 of 32 µg/mL (≈ 66.1 µM).
Consider `CCCCCn1c(CN2CCN(c3cc4c(cc3F)c(=O)c(C(=O)O)cn4C3CC3)CC2)nc2ccccc21`, for which the MIC80 amounted to 8 µg/mL (≈ 15 µM).
On the same count and under the same terms, to `O=C(O)c1cn(C2CC2)c2cc(N3CCN(Cc4nc5ccc(Cl)cc5[nH]4)CC3)c(F)cc2c1=O` belongs 0.5 µg/mL (≈ 1.01 µM).

The next test deals with Shigella dysenteriae. In words: Antibacterial activity against Shigella dysenteriae by micro broth dilution method. The class given is functional.
Details: not given
Molecule `CCn1cc(C(=O)O)c(=O)c2cc(F)c(N3CCN(Cc4nc5ccc(Cl)cc5[nH]4)CC3)cc21` came in with an MIC of 1 µg/mL (≈ 2.07 µM).
Still for that read-out and setting: next, `CCCCCn1c(CN2CCN(c3cc4c(cc3F)c(=O)c(C(=O)O)cn4C3CC3)CC2)nc2ccccc21`: 8 µg/mL (≈ 15 µM); `O=C(O)c1cn(C2CC2)c2cc(N3CCN(Cc4nc5ccc(Cl)cc5[nH]4)CC3)c(F)cc2c1=O`: 0.5 µg/mL (≈ 1.01 µM).

Another test has as its system Cyberlindnera jadinii. The experiment in a line: Antifungal activity against Candida utilis ATCC 9950 after 24 hrs by micro broth dilution method. The settings on record: Williopsis jadinii, ATCC 9950, 24 h. The test is classed as functional.
On to `CCn1cc(C(=O)O)c(=O)c2cc(F)c(N3CCN(Cc4nc5ccc(Cl)cc5[nH]4)CC3)cc21`, for which the MIC80 amounted to 8 µg/mL (≈ 16.5 µM).
Still for that read-out and setting: next, `CCCCCn1c(CN2CCN(c3cc4c(cc3F)c(=O)c(C(=O)O)cn4C3CC3)CC2)nc2ccccc21`: 8 µg/mL (≈ 15 µM).
The same measure, in the same setting: next, `O=C(O)c1cn(C2CC2)c2cc(N3CCN(Cc4nc5ccc(Cl)cc5[nH]4)CC3)c(F)cc2c1=O`: 0.5 µg/mL (≈ 1.01 µM).

The record behind these values is ChEMBL document CHEMBL3769303, “Discovery of membrane active benzimidazole quinolones-based topoisomerase inhibitors as potential DNA-binding antimicrobial agents” (Eur J Med Chem, 2016).
